According to publication PMC10810714, “Antiretroviral Drug Exposure and Response in Obese and Morbidly Obese People With Human Immunodeficiency Virus (HIV): A Study Combining Modelling and Swiss HIV Cohort Data” (Clinical Infectious Diseases: An Official Publication of …, 2023):
Read-outs that look alike come from different tables or passages of the source.

Columns and labels:
[1] = Observed pharmacokinetics of antiretrovirals in nonobese and obese individuals (SHCS therapeutic drug monitoring data and literature studies, noncompartmental analysis); details: for AUC(0-t) / Cmax / half-life: human, plasma, po, nonobese individuals; for AUC(0-t): AUCt; for AUC(0-t) / Cmax: observed; for AUC(0-t) / Cmax / half-life / Cτ, observed, nonobese individuals: nonobese (BMI range per drug), GM; for half-life: t1/2, observed
Description: (§1) We took several steps to analyse the impact of obesity on the ARVs exposure and response. First, we implemented our in-house PBPK model with our recently published virtual White obese population to simulate the pharmacokinetics of ARVs in nonobese and obese individuals. Next, we verified the simulations against the TDM data collected during the follow-up visits of the SHCS (multiple drug levels per individual were allowed [more information on the SHCS in the homonymous section in the Supplementary Material]). We then applied the verified model to extrapolate the pharmacokinetics across different obesity classes. Finally, the clinical relevance of obesity-related changes on drug response was evaluated by analyzing HIV viral load and the corresponding TDM values in obese and nonobese individuals in the SHCS.
(§2) All ARV drug models, except for doravirine (Supplementary Table 1), were previously developed and verified to predict the pharmacokinetics in healthy and elderly PWH [6, 12]. […] The TDM data were excluded if the participant’s age was younger than 20 or older than 50 years to avoid the age-related confounding effect on the pharmacokinetics, if a nonstandard ARV dosage was used, and if concurrent medications with inhibitory or inducing effects were used. The pharmacokinetic parameters including peak plasma concentration (Cmax), area under the curve to time t (AUCt), and trough concentration (Cτ) were derived from the TDM data using noncompartmental analysis.
(§3) A literature search was also performed to identify pharmacokinetic studies with ARVs conducted in obese and nonobese individuals. Data on the study design, characteristics of the participants, and pharmacokinetic results were collected. […] Available concentration-time profiles were digitalized using GetData Graph Digitizer V.2.26. The virtual trials were conducted by matching the participants’ demographics (eg, age, proportion of females, and BMI) and the ARV dosing regimen (Supplementary Table 2). The models were considered verified if the simulations were within 2-fold of observed data.
The Swiss HIV Cohort Study (SHCS) is an ongoing, nationwide, multicenter, clinic-based prospective cohort study in Switzerland with continuous enrollment and follow-up (twice a year) of people with HIV (PWH). Socio-demographic, clinical and laboratory data are recorded in detail. […] The collection of therapeutic drug monitoring (TDM) data in the SHCS database was initiated in 1998. All available TDM data for each evaluated antiretroviral drug were extracted from the SHCS database representing 6210 and 575 data points for the verification of the simulations in non-obese and obese individuals, respectively.

HIV viral load = test: Drug response in obese versus nonobese participants in the SHCS (concentration below efficacy threshold and viral load >50 copies/mL)
Protocol: The viral load was analyzed in conjunction with the TDM data to evaluate whether a decrease in ARV exposure in obese PWH is associated with a viral load of more than 50 copies/mL (the viral load measured on the date of the TDM assessment was considered for this evaluation).

[2] = cited from earlier work; for AUCt, observed, nonobese individuals / Cmax, observed, nonobese individuals / Cτ, observed, nonobese individuals / t1/2, observed, nonobese individuals: standard oral dose at steady state, GM (mean for etravirine, emtricitabine, tenofovir), literature studies only, ref Supplementary Table 2 [9-16, 21-24]
[3] = PBPK model virtual trials matched to the observed studies (model verification, nonobese vs obese); set-up: species or system human; details: for AUCt, Ratio Predicted/Observed, Nonobese / Cmax, Ratio Predicted/Observed, Nonobese / Cτ, Ratio Predicted/Observed, Nonobese / t1/2, Ratio Predicted/Observed, Nonobese: nonobese individuals; for Predictions within x-fold of observed clinical data: pharmacokinetic parameters in obese and nonobese individuals, 1.25-fold 'for the most part'
Description: as §1, §2, §3

[4] = over 18 mo after switching from tenofovir disoproxil fumarate; cited from earlier work
[5] = Black African PWH, median BMI 25.3 vs 32.8 kg/m^2; cited from earlier work
[6] = standard oral dose at steady state, SHCS TDM data with or without literature data
[7] = obese (BMI >=30, range per drug), standard oral dose at steady state, GM (mean for etravirine), SHCS TDM data with or without literature data
[8] = BMI 18.5–30 kg/m^2, viral load above 50 copies/mL
[9] = BMI >30 kg/m^2, viral load above 50 copies/mL
[10] = obese BMI 36–46 kg/m^2, 245 mg QD, mean, literature study only

Compound | AUC(0-t) [1, 6] [ng·h/mL] | Cmax [1, 6] [ng/mL] | half-life [1, 6] [h] | Cτ, observed, nonobese individuals [1, 6] [ng/mL] | Cτ, observed, obese individuals [1, 7] [ng/mL] | % PWH with concentration below efficacy threshold (HIV viral load; BMI 18.5–30 kg/m^2) [%] | % PWH with virological failure amongst those with concentration below efficacy threshold (HIV viral load; [8]) [%] | % PWH with concentration below efficacy threshold (HIV viral load; BMI >30 kg/m^2) [%] | % PWH with virological failure amongst those with concentration below efficacy threshold (HIV viral load; [9]) [%] | AUCt, observed, nonobese individuals [2] [ng·h/mL] | Cmax, observed, nonobese individuals [2] [ng/mL] | Cτ, observed, nonobese individuals [2] [ng/mL] | AUCt, Ratio Predicted/Observed, Nonobese [3] | Cmax, Ratio Predicted/Observed, Nonobese [3] | Cτ, Ratio Predicted/Observed, Nonobese [3] | t1/2, Ratio Predicted/Observed, Nonobese [3] | further results
O=C1Nc2ccc(Cl)cc2[C@@](C#CC2CC2)(C(F)(F)F)O1 [Efavirenz, efavirenz] | 52200 | 3170 | 20.2 | 1751 | 1512 | 2.3 | 1.1 | 5.2 | 1.1 |  |  |  |  |  |  |  | 
Cc1cc(C#N)cc(C)c1Oc1nc(Nc2ccc(C#N)cc2)nc(N)c1Br [Etravirine, etravirine] |  |  |  |  | 313 | 32.1 | 11.9 | 10 | 0 | 7970 | 949 | 464 |  |  |  |  | 
Cc1cc(/C=C/C#N)cc(C)c1Nc1ccnc(Nc2ccc(C#N)cc2)n1 [Rilpivirine, rilpivirine] |  |  |  |  | 89.2 | 15 | 1.9 | 0 | 0 | 2333 | 159.7 | 75.2 | 1.05 | 0.93 | 0.96 | 0.65 | Cmax, observed, obese individuals [1, 7]: 147.7 ng/mL; AUCt, Ratio Obese/Nonobese, Observed ([1]; observed data): 0.85; Cmax, Ratio Obese/Nonobese, Observed ([1]; observed data): 0.92; Cτ, Ratio Obese/Nonobese, Observed ([1]; observed data): 1.19; AUCt, Ratio (Predicted Ratio Obese/Nonobese)/(Observed Ratio Obese/Nonobese) [3]: 1.16; Cmax, Ratio (Predicted Ratio Obese/Nonobese)/(Observed Ratio Obese/Nonobese) [3]: 1.09; Cτ, Ratio (Predicted Ratio Obese/Nonobese)/(Observed Ratio Obese/Nonobese) [3]: 0.87; AUCt, Ratio Predicted/Observed, Obese ([3]; obese individuals): 1.23; Cmax, Ratio Predicted/Observed, Obese ([3]; obese individuals): 1.00; Cτ, Ratio Predicted/Observed, Obese ([3]; obese individuals): 0.84; Predictions within x-fold of observed clinical data [3]: ≤ 1.25 fold; t1/2, observed, nonobese individuals [2]: 47.2 h
Nc1nc(=O)n([C@@H]2CS[C@H](CO)O2)cc1F [Emtricitabine, emtricitabine] |  |  |  |  |  |  |  |  |  | 9589.4 | 1640.2 | 67.1 | 1.10 | 0.99 | 1.35 | 1.86 | t1/2, observed, nonobese individuals [2]: 9.4 h
Cc1nnc(C(=O)NC(C)(C)c2nc(C(=O)NCc3ccc(F)cc3)c(O)c(=O)n2C)o1 [Raltegravir, raltegravir] |  |  |  | 142 | 171 | 4 | 1.6 | 4.7 | 0 |  |  |  |  |  |  |  | 
C[C@H](Cn1cnc2c(N)ncnc21)OCP(=O)(O)O [Tenofovir, tenofovir] |  |  |  |  |  |  |  |  |  | 2858.4 | 300.5 | 58.2 | 1.06 | 1.00 | 1.11 | 1.15 | AUCt, Ratio Predicted/Observed, Obese ([3]; obese individuals): 0.95; Cmax, Ratio Predicted/Observed, Obese ([3]; obese individuals): 0.83; Cτ, Ratio Predicted/Observed, Obese ([3]; obese individuals): 1.13; t1/2, Ratio Predicted/Observed, Obese ([3]; obese individuals): 1.75; t1/2, observed, nonobese individuals [2]: 14.9 h; AUCt, observed, obese individuals [2, 10]: 2346 ng·h/mL; Cmax, observed, obese individuals [2, 10]: 263 ng/mL; Cτ, observed, obese individuals [2, 10]: 47 ng/mL; t1/2, observed, obese individuals [2, 10]: 13 h
CC(C)OC(=O)[C@H](C)N[P@](=O)(CO[C@H](C)Cn1cnc2c(N)ncnc21)Oc1ccccc1 [tenofovir alafenamide] |  |  |  |  |  |  |  |  |  |  |  |  |  |  |  |  | Increase in weight [4]: 1.7 kg
O=C(NCc1c(F)cc(F)cc1F)c1cn2c(c(O)c1=O)C(=O)N1[C@H]3CC[C@H](C3)O[C@@H]1C2 [Bictegravir, bictegravir] | 85800 | 5240 | 20.6 | 2373 |  | 1.5 | 0 | 0 | 0 |  |  |  | 0.97 | 0.87 | 1.01 | 1.27 | Predictions within x-fold of observed clinical data [3]: ≤ 1.5 fold
darunavir/ritonavir |  |  |  |  |  |  | 1.6 |  | 0 |  |  |  |  |  |  |  | 
C[C@@H]1CCO[C@H]2Cn3cc(C(=O)NCc4ccc(F)cc4F)c(=O)c(O)c3C(=O)N12 [Dolutegravir, dolutegravir] | 45400 | 3320 | 12.6 | 889 | 940 | 2.1 | 0.3 | 2.6 | 0 |  |  |  |  |  |  |  | Reduction in AUCt, obese vs nonobese [5]: 9%; Reduction in Cmax, obese vs nonobese [5]: 14%; Reduction in Cτ, obese vs nonobese [5]: 1%
CC(C)c1nc(CN(C)C(=O)N[C@H](C(=O)N[C@@H](Cc2ccccc2)C[C@H](O)[C@H](Cc2ccccc2)NC(=O)OCc2cncs2)C(C)C)cs1 [Ritonavir, ritonavir] | 5740 | 480 | 5.4 | 91.4 | 71.3 |  |  |  |  |  |  |  |  |  |  |  | 
